Measured values from PMC5915149, “The role of oxidative stress in activity of anticancer thiosemicarbazones” (Oncotarget, 2018).
Like-named read-outs stand apart in the source and are kept apart here.

Assays:
HCT116 [1] = test: MTS antiproliferative assay, HCT116 (with or without added metal ions); format: cell-based, human
Method: (§1) The cells were seeded in 96-well plates (Nunc) at a density of 3,500 cells/well (HCT116 and MCF-7) and 3,000 cells/well (NHDF) and incubated at 37° C for 24 h. The assay was performed following a 96 h incubation with varying concentrations of the compounds that were being tested. Then, 20 µL of CellTiter 96® AQueous One Solution-MTS (Promega) was added to each well (with 100 µL DMEM without phenol red) and incubated for 1 h at 37° C. The optical densities of the samples were analyzed at 490 nm using a multi-plate reader (Synergy 4, Bio Tek). Results were expressed as a percentage of the control and calculated as the inhibitory concentration (IC50) values (using GraphPad Prism 5). The IC50 parameter was defined as the compound concentration that was necessary to reduce the proliferation of cells to 50% of the untreated control. Each individual compound was tested in triplicate in a single experiment with each experiment being repeated three or four times.
(§2) The HCT116 and MCF-7 cells were seeded in 96-well plates (Nunc) at a density of 3,500 cells/well and incubated at 37° C for 24 h. The MTS assay was performed following a 96 h incubation with varying concentrations of the tested compounds. Additionally, a 20 µM solution of CuSO4, FeSO4 or FeCl3 was added into wells with the tested compounds. The results were expressed as a percentage of the control and calculated as the inhibitory concentration (IC50) values using GraphPad Prism 5. Each individual compound was tested in triplicate in a single experiment with each experiment being repeated three times.

NHDF [2] = test: MTS cytotoxicity assay, normal fibroblasts; format: cell-based, human; conditions: 96 h incubation
Method: as §1

calf-thymus DNA (CT-DNA) [3] = test: Intercalation, absorption spectra with CT-DNA; format: binding; conditions: for % hypochromism / Changes in absorbance / Δε: bound to CT-DNA; for blue/red shift: wavelengths of maximum absorption, compound alone vs DNA-bound
Method: For the DNA binding studies, Calf-thymus DNA (CT-DNA) was purchased from Sigma Aldrich. The lyophilized CT-DNA was dissolved in 10 mM Tris-HCl, pH 7.9, mixed gently and left overnight at 4° C. The purity of the CT-DNA solution was determined by measuring the ratio of UV absorbance at 260 and 280 nm. […] Then, the concentration of CT-DNA was determined from the absorbance at 260 nm using an extinction coefficient of 6600 M^–1cm^–1. The tested TSC and DOX were dissolved in DMSO to a concentration of 8.35 mM, which was then used as the stock solution for preparing the various concentrations (25, 12.5, 6 and 3 µM) in 1 mL in 10 mM of Tris-HCl (pH 7.9). Afterwards, 18 µM CT-DNA was added to the prepared solutions, which were incubated for 1.5 h at 37° C with occasional vortexing. The absorption spectra were measured using a Hitachi U-2900 spectrophotometer in range of 200–500 nm. All absorption spectra were imported and compared in OriginPro 8.0.

CAT = test: mRNA expression (Real-Time PCR) of CAT; format: cell-based, human; conditions: HCT116, TSC 1 µM, after the first 12 h
Method: (§3) The HCT116 cells were seeded in 3 cm Petri dishes (Nunc) at a density of 0.5·10^6 cells/well and incubated overnight. Next, the medium was removed and solutions of TSC (1 μM) and DOX (5 μM) were added. After 12 or 24 h, total RNA was isolated from the cells using TRIzol Reagent (Ambion) according to the manufacturer’s instructions. cDNA synthesis was performed with 5 μg of total RNA using a GoScript™ Reverse Transcriptase kit (Promega) and Oligo(dT)23 Primers (Sigma). The Real-Time PCR was performed with a CTX96 Touch™ Real-Time PCR Detection System (Biorad) in a 20 μL reaction volume. The reaction consisted of PowerUp™ SYBR® Green Master Mix (Applied Biosystems), a primer pair mix (0.5 μM each) and 1 μL of cDNA. All primer pair sequences were purchased from Sigma-Aldrich and are listed in Supplementary Table 2. The experiment was performed under the following conditions: initial denaturation at 95° C for 120 sec; followed by 40 denaturation cycles at 95° C, 15 sec; annealing (primer-specific temperature for 30 sec) and extension at 72° C for 60 sec. Data was analyzed based on a comparison of the expression of the target genes to a reference gene – β-actin, using the 2^–ΔΔCT method. The experiments were performed at least three times.

MCF-7 = test: MTS antiproliferative assay, MCF-7 (with or without added metal ions); format: cell-based, human
Method: as §1, §2

p21 = test: Western blot of p21; format: cell-based, human; conditions: HCT116, 1 µM
Method: (§4) The HCT116 cells were seeded in 3 cm Petri dishes (Nunc) at a density of 0.5·10^6 cells/well and incubated overnight. The next day, solutions of TSC (1 μM) and DOX (5 μM) were added and the cells incubated for 24 or 48 h. Cells were harvested by trypsinization and washed with cold PBS. Next, the cells were centrifuged and suspended in an RIPA buffer (Thermo Scientific) containing Halt Protease Inhibitor Cocktail (Thermo Scientific), Halt Phosphatase Inhibitor Cocktail (Thermo Scientific) along with 0.5 M EDTA and lysed for 20 min on ice. Then, the lysates were sonicated, centrifuged at 10,000 rpm for 10 min at 4° C and the supernatants were collected for further analysis. The protein concentration was determined using a Micro BCA™ Protein Assay Kit (Thermo Scientific) according to the manufacturer’s instructions. Equal amounts of the proteins (20 μg) were electrophoresed on SDS-Page gels and transferred onto a nitrocellulose membranes. The membranes were blocked in 5% non-fat milk prepared in PBS containing 0.1% Tween-20 (TPBS) for 1 h. After blocking, the membranes were incubated with specific primary antibodies: cdc2 (#POH1, Cell Signaling), p21^Waf1/Cip1 (#12D1, Cell Signaling), p53 (#1C12, Cell Signaling) and β-Actin (#8H10D10, Cell Signaling) overnight at 4° C, then washed and incubated with horseradish peroxidase (HRP)-conjugated secondary antibodies for 1h at room temperature. All of antibodies were diluted 1:1000 in 5% milk in TPBS. Finally, the membranes were washed and incubated with a SuperSignal™ West Pico Chemiluminescent Substrate (Thermo Scientific). The chemiluminescence signals were captured using a ChemiDoc™ XRS+ System (BioRad). The experiments were performed at least three times. Densitometric analysis was performed using ImageJ 1.41 software (Wayne Rasband, National Institutes of Health, USA).

NHDF [4] = tested on: NHDF; parameters: method as in PMID 25329549; conditions: 96 h incubation, MTS; cited from earlier work
HCT116 [5] = tested on: HCT116; parameters: method as in PMID 25329549; conditions: 96 h incubation, MTS; cited from earlier work
MnSOD = test: mRNA expression (Real-Time PCR) of MnSOD; format: cell-based, human; conditions: HCT116, TSC 1 µM, 12 or 24 h
Method: as §3

cdc2 = test: Western blot of cdc2; format: cell-based, human; conditions: HCT116, 1 µM
Method: as §4

HCT116 cells = test: Time dependent measurement of ROS level; format: cell-based, human; conditions: 1 µM; 3, 6, 9, 12, 24 h
Method: To determine the intracellular levels of ROS, HCT116 cells were seeded onto black 96-well plates (Corning) at a density of 9,000 cells/well and incubated at 37° C. After an overnight incubation, the solutions of the tested compounds: 1a-c, 2 a-b, 3 a-c, Dp44mT (1 μM) and DOX (5 μM) were added and incubated for 3, 6, 9, 12, and 24 h in a kinetic experiment. The generation of ROS was measured using a CellROX® Green Reagent (Molecular Probes™). Additionally, the quantity of cells in each well was determined using Hoechst 33342 (Molecular Probes™). The solutions of the tested compounds were removed and 100 µL of CellROX Green Reagent and Hoechst 33342 at a final concentration of 5 μM were added to each well. Then, the cells were incubated for 30 min at 37° C. The fluorescence was measured using a multi-plate reader (Synergy 4, Bio Tek) at 485 nm excitation and a 520 nm emission for CellROX Green Reagent and a 345 nm excitation laser and a 485 nm emission filter for Hoechst 33342. The experiments were performed three to four times. ROS levels were expressed as the percentage of the control cells level.

Ndrg1 = test: mRNA expression (Real-Time PCR) of Ndrg1; format: cell-based, human; conditions: HCT116, TSC 1 µM, 24 h
Method: as §3

calf-thymus DNA (CT-DNA) [6] = tested on: calf-thymus DNA (CT-DNA); parameters: method as in PMID 26599982; conditions: cited from earlier work
[7] = 96 h, 20 µM CuSO4 added, read-out: Activity - IC50 HCT116+ Cu^2+
[8] = 96 h, 20 µM FeCl3 added, read-out: Activity - IC50 HCT116+ Fe^3+
[9] = 96 h, 20 µM CuSO4 added, read-out: Activity - IC50 MCF-7+ Cu^2+
[10] = 96 h, 20 µM FeCl3 added, read-out: Activity - IC50 MCF-7+ Fe^3+
[11] = 96 h incubation, MTS, read-out: Activity - IC50 MCF-7

Compound `FC(F)(F)c1cnc(N2CCN(C(=S)NN=Cc3ccc4ccccc4n3)CC2)c(Cl)c1` [Compound 1c] has an IC50 (HCT116 [1]; [7]) of 7.19 ± 1.84 nM, an IC50 (HCT116 [1]; [8]) of 70.8 ± 7.28 nM and an IC50 (HCT116 [1]; 96 h incubation, MTS, read-out: Activity - IC50 HCT116) of 72.1 ± 9.4 nM. For the same compound, the “improvement in cytotoxicity after interacting with Cu^2+” value (HCT116 [1]; HCT116 cells, 20 µM CuSO4) was “more than a ten-fold increase”, the IC50 (NHDF [2]) was 17100 nM and the “% hypochromism” value (calf-thymus DNA (CT-DNA) [3]) was 22.6%. For the same compound, the Changes in absorbance (calf-thymus DNA (CT-DNA) [3]) was “hypochromism”, the Δε (calf-thymus DNA (CT-DNA) [3]) was 2695.6 M⁻¹ cm⁻¹ and the blue/red shift (calf-thymus DNA (CT-DNA) [3]) was 4 nm. For the same compound, the “mRNA expression of CAT” value (CAT) was “higher”, the IC50 (MCF-7; [9]) was 4.48 ± 1.18 nM and the IC50 (MCF-7; [10]) was 39.1 ± 6.51 nM. The IC50 (MCF-7; [11]) was 17.2 ± 2.71 nM and the “expression of p21 protein (densitometric analysis)” value (p21) was “marked up-regulation”.
For `S=C(NN=C(c1ccccn1)c1ccccn1)N1CCN(c2cnccn2)CC1` [Compound 3c], the IC50 (NHDF [4]) is listed as 13.85 ± 0.03 nM, the IC50 (HCT116 [1]; [7]) is listed as 4.95 ± 1.64 nM and the IC50 (HCT116 [1]; [8]) is listed as 29.5 ± 3.69 nM. The “% hypochromism” value (calf-thymus DNA (CT-DNA) [3]) was 28.5%, the Changes in absorbance (calf-thymus DNA (CT-DNA) [3]) was “hypochromism” and the Δε (calf-thymus DNA (CT-DNA) [3]) was 3220.0 M⁻¹ cm⁻¹. The blue/red shift (calf-thymus DNA (CT-DNA) [3]) was 2 nm, the IC50 (HCT116 [5]) was 37.8 ± 3.05 nM and the “mRNA expression of MnSOD” value (MnSOD) was “large drop”. The “expression of cdc2 protein (densitometric analysis)” value (cdc2) was “strongest decreasing effect”, the “level of ROS, normalized to untreated cells” value (HCT116 cells) was “only a minute increase” and the “mRNA expression of Ndrg1” value (Ndrg1) was “strongest”. The IC50 (MCF-7; [9]) was 4.41 ± 1.5 nM, the IC50 (MCF-7; [10]) was 16.6 ± 2.25 nM and the IC50 (MCF-7; [11]) was 25.6 ± 6.74 nM. The “expression of p21 protein (densitometric analysis)” value (p21) was “marked up-regulation”.
Compound `COc1cccc2c1C(=O)c1c(O)c3c(c(O)c1C2=O)C[C@@](O)(C(=O)CO)C[C@@H]3O[C@H]1C[C@H](N)[C@H](O)[C@H](C)O1` [DOX, doxorubicin, reference compound] has an IC50 (HCT116 [1]; Homo sapiens, HCT-116, 96 h, 20 µM CuSO4 added, read-out: Activity - IC50 HCT116+ Cu^2+) of 62.5 ± 8.24 nM, an IC50 (HCT116 [1]; Homo sapiens, HCT-116, 96 h, 20 µM FeCl3 added, read-out: Activity - IC50 HCT116+ Fe^3+) of 84.8 ± 11.2 nM and an IC50 (HCT116 [1]; Homo sapiens, HCT-116, 96 h incubation, MTS, read-out: Activity - IC50 HCT116) of 91 ± 6.96 nM. The “Selectivity index, calculated for HCT116” value (HCT116 [1]; versus NHDF) was 1.5, the IC50 (NHDF [2]; Homo sapiens, NHDF) was 137 ± 26 nM and the “% hypochromism” value (calf-thymus DNA (CT-DNA) [6]; bound to CT-DNA) was 34.2%. For the same compound, the Changes in absorbance (calf-thymus DNA (CT-DNA) [6]; bound to CT-DNA) was “hypochromism”, the Δε (calf-thymus DNA (CT-DNA) [6]; bound to CT-DNA) was 3235.6 M⁻¹ cm⁻¹ and the “% hypochromism” value (calf-thymus DNA (CT-DNA) [6]; bound to CT-DNA, listed as doxorubicin) was “about 34.2%”. For the same compound, the blue/red shift (calf-thymus DNA (CT-DNA) [6]; wavelengths of maximum absorption, compound alone vs DNA-bound) was 10 nm, the IC50 (MCF-7; Homo sapiens, MCF7, 96 h, 20 µM CuSO4 added, read-out: Activity - IC50 MCF-7+ Cu^2+) was 336 ± 65.3 nM and the IC50 (MCF-7; Homo sapiens, MCF7, 96 h, 20 µM FeCl3 added, read-out: Activity - IC50 MCF-7+ Fe^3+) was 414 ± 59 nM. The IC50 (MCF-7; Homo sapiens, MCF7, 96 h incubation, MTS, read-out: Activity - IC50 MCF-7) was 405 ± 38 nM and the “Selectivity index, calculated for MCF-7” value (MCF-7; versus NHDF) was 0.3.
